From US20040209859A1, “Fused cycloalkyl amides and acids and their therapeutic applications” (priority 2002, published 2004)

melting point [°C]	Structure (SMILES)
86	CC1(C)[C@@H]2CC3[C@H](C(=O)O)[C@@]3(C)C[C@@H]21 (stereo partly drawn) (hydrate or solvate) [Example 1, (1S,3S,4S,7R)-3,8,8-trimethyltricyclo[5.1.0.0^3,5]octane-4-carboxylic acid]
169.2 to 169.7	CC1(C)[C@@H]2CC3[C@H](C(=O)NCC(N)=O)[C@@]3(C)C[C@@H]21 (stereo partly drawn) [Example 4, (1S,3S,4S,7R)-N-(2-amino-2-oxoethyl)-3,8,8-trimethyltricyclo [5.1.0.0^3,5]octane-4-carboxamide]
121.5 to 122.5	CC1(C)[C@@H]2CC3[C@H](C(N)=O)[C@@]3(C)C[C@@H]21 (stereo partly drawn) [Example 3, (1S,3S,4S,7R)-3,8,8-trimethyltricyclo[5.1.0.0^3,5]octane-4-carboxamide]
